Experimental data as given in patent publication US12077503B2, “Substituted cyclic amides and their use as herbicides” (FMC CORPORATION, priority 2015, dated 2024).

What was measured:
Type in all cases: in vivo
[1] = test system: ivy-leaved morning glory (Ipomoea hederacea); assay: Test G Pre-Emergence Protocol; settings: Ipomoea, pre-emergence, 312 h, evaluated after 13 days; for pest or weed control at 15.625 g/ha: 15.625 g ai/ha, read-out: Morning-glory, Ivy-leaved damage rating (100=total damage to plant; 0=no damage to plant); for pest or weed control at 62.5 g/ha: 62.5 g ai/ha, 100=total damage to plant, 0=no damage to plant, read-out: plant damage rating, Morningglory, Ivy-leaved; for pest or weed control at 250 g/ha: 250 g ai/ha, read-out: Morningglory, Ivy-leaved damage rating (100=total damage to plant; 0=no damage to plant)
Summary of the method: (§1)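 Seeds were sown in standard soil and kept one day in a glasshouse (24/16° C day/night, 14 h light, 65% humidity), then sprayed with compound in acetone/water (50:50) containing 0.5% Tween 20 at 15.625, 62.5 or 250 g/ha. Damage was scored after 13 days (0 = none, 100 = total).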

[2] = test system: giant foxtail (Setaria faberi); assay: Test G Pre-Emergence Protocol; settings: Setaria faberi, pre-emergence, 312 h, evaluated after 13 days; for pest or weed control at 15.625 g/ha: 15.625 g ai/ha; for pest or weed control at 15.625 g/ha / pest or weed control at 250 g/ha: read-out: Foxtail, Giant damage rating (100=total damage to plant; 0=no damage to plant); for pest or weed control at 62.5 g/ha: 62.5 g ai/ha, 100=total damage to plant, 0=no damage to plant, read-out: plant damage rating, Foxtail, Giant; for pest or weed control at 250 g/ha: 250 g ai/ha
Summary of the method: as §1

corn (Zea mays) [3] = assay: Test G Pre-Emergence Protocol; settings: Zea mays, pre-emergence, 312 h, evaluated after 13 days; for plant injury at 15.625 g/ha: 15.625 g ai/ha; for plant injury at 15.625 g/ha / plant injury at 250 g/ha: read-out: Corn damage rating (100=total damage to plant; 0=no damage to plant); for plant injury at 62.5 g/ha: 62.5 g ai/ha, 100=total damage to plant, 0=no damage to plant, read-out: plant damage rating, Corn; for plant injury at 250 g/ha: 250 g ai/ha
Summary of the method: as §1

[4] = test system: velvetleaf (Abutilon theophrasti); assay: Test G Pre-Emergence Protocol; settings: Abutilon theophrasti, pre-emergence, 312 h, evaluated after 13 days; for pest or weed control at 15.625 g/ha: 15.625 g ai/ha; for pest or weed control at 15.625 g/ha / pest or weed control at 250 g/ha: read-out: Velvetleaf damage rating (100=total damage to plant; 0=no damage to plant); for pest or weed control at 62.5 g/ha: 62.5 g ai/ha, 100=total damage to plant, 0=no damage to plant, read-out: plant damage rating, Velvetleaf; for pest or weed control at 250 g/ha: 250 g ai/ha
Summary of the method: as §1

[5] = test system: barnyardgrass (Echinochloa crus-galli); assay: Test G Pre-Emergence Protocol; settings: Echinochloa crus-galli, pre-emergence, 312 h, evaluated after 13 days; for pest or weed control at 15.625 g/ha: 15.625 g ai/ha, read-out: Barnyard grass damage rating (100=total damage to plant; 0=no damage to plant); for pest or weed control at 62.5 g/ha: 62.5 g ai/ha, 100=total damage to plant, 0=no damage to plant, read-out: plant damage rating, Barnyardgrass; for pest or weed control at 250 g/ha: 250 g ai/ha, read-out: Barnyardgrass damage rating (100=total damage to plant; 0=no damage to plant)
Summary of the method: as §1

[6] = test system: redroot pigweed (Amaranthus retroflexus); assay: Test G Pre-Emergence Protocol; settings: Amaranthus retroflexus, pre-emergence, 312 h, evaluated after 13 days; for pest or weed control at 15.625 g/ha: 15.625 g ai/ha; for pest or weed control at 15.625 g/ha / pest or weed control at 250 g/ha: read-out: Pigweed, Redroot damage rating (100=total damage to plant; 0=no damage to plant); for pest or weed control at 62.5 g/ha: 62.5 g ai/ha, 100=total damage to plant, 0=no damage to plant, read-out: plant damage rating, Pigweed, Redroot; for pest or weed control at 250 g/ha: 250 g ai/ha
Summary of the method: as §1

[7] = test system: ivy-leaved morning glory (Ipomoea hederacea); assay: Test G Post-Emergence Protocol; settings: Ipomoea, post-emergence, 312 h; for pest or weed control at 15.625 g/ha: 15.625 g ai/ha, evaluated after 13 days (100=total damage to plant; 0=no damage to plant), read-out: Morningglory, Ivy-leaved damage rating; for pest or weed control at 62.5 g/ha: 62.5 g ai/ha, read-out: Morningglory, Ivy-leaved damage rating (100=total damage to plant; 0=no damage to plant); for pest or weed control at 62.5 g/ha / pest or weed control at 250 g/ha: evaluated after 13 days; for pest or weed control at 250 g/ha: 250 g ai/ha, read-out: damage to plant, Morningglory, Ivy-leaved (100=total damage to plant; 0=no damage to plant)
Summary of the method: (§2)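 Post-emergence herbicidal damage, scored visually 0–100 at 13 days. Application at 15.625, 62.5 or 250 g/ha onto 8-day-old plants grown under glasshouse control.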

[8] = test system: giant foxtail (Setaria faberi); assay: Test G Post-Emergence Protocol; settings: Setaria faberi, post-emergence, 312 h; for pest or weed control at 15.625 g/ha: 15.625 g ai/ha, evaluated after 13 days (100=total damage to plant; 0=no damage to plant), read-out: Foxtail, Giant damage rating; for pest or weed control at 62.5 g/ha: 62.5 g ai/ha, read-out: Foxtail, Giant damage rating (100=total damage to plant; 0=no damage to plant); for pest or weed control at 62.5 g/ha / pest or weed control at 250 g/ha: evaluated after 13 days; for pest or weed control at 250 g/ha: 250 g ai/ha, read-out: damage to plant, Foxtail, Giant (100=total damage to plant; 0=no damage to plant)
Summary of the method: as §2

corn (Zea mays) [9] = assay: Test G Post-Emergence Protocol; settings: Zea mays, post-emergence, 312 h; for plant injury at 15.625 g/ha: 15.625 g ai/ha, evaluated after 13 days (100=total damage to plant; 0=no damage to plant), read-out: Corn damage rating; for plant injury at 62.5 g/ha: 62.5 g ai/ha, read-out: Corn damage rating (100=total damage to plant; 0=no damage to plant); for plant injury at 62.5 g/ha / plant injury at 250 g/ha: evaluated after 13 days; for plant injury at 250 g/ha: 250 g ai/ha, read-out: damage to plant, Corn (100=total damage to plant; 0=no damage to plant)
Summary of the method: as §2

[10] = test system: velvetleaf (Abutilon theophrasti); assay: Test G Post-Emergence Protocol; settings: Abutilon theophrasti, post-emergence, 312 h; for pest or weed control at 15.625 g/ha: 15.625 g ai/ha, evaluated after 13 days (100=total damage to plant; 0=no damage to plant), read-out: Velvetleaf damage rating; for pest or weed control at 62.5 g/ha: 62.5 g ai/ha, read-out: Velvetleaf damage rating (100=total damage to plant; 0=no damage to plant); for pest or weed control at 62.5 g/ha / pest or weed control at 250 g/ha: evaluated after 13 days; for pest or weed control at 250 g/ha: 250 g ai/ha, read-out: damage to plant, Velvetleaf (100=total damage to plant; 0=no damage to plant)
Summary of the method: as §2

[11] = test system: barnyardgrass (Echinochloa crus-galli); assay: Test G Post-Emergence Protocol; settings: Echinochloa crus-galli, post-emergence, 312 h; for pest or weed control at 15.625 g/ha: 15.625 g ai/ha, evaluated after 13 days (100=total damage to plant; 0=no damage to plant), read-out: Barnyardgrass damage rating; for pest or weed control at 62.5 g/ha: 62.5 g ai/ha, read-out: Barnyardgrass damage rating (100=total damage to plant; 0=no damage to plant); for pest or weed control at 62.5 g/ha / pest or weed control at 250 g/ha: evaluated after 13 days; for pest or weed control at 250 g/ha: 250 g ai/ha, read-out: damage to plant, Barnyardgrass (100=total damage to plant; 0=no damage to plant)
Summary of the method: as §2

[12] = test system: redroot pigweed (Amaranthus retroflexus); assay: Test G Post-Emergence Protocol; settings: Amaranthus retroflexus, post-emergence, 312 h; for pest or weed control at 15.625 g/ha: 15.625 g ai/ha, evaluated after 13 days (100=total damage to plant; 0=no damage to plant), read-out: Pigweed, Redroot damage rating; for pest or weed control at 62.5 g/ha: 62.5 g ai/ha, read-out: Pigweed, Redroot damage rating (100=total damage to plant; 0=no damage to plant); for pest or weed control at 62.5 g/ha / pest or weed control at 250 g/ha: evaluated after 13 days; for pest or weed control at 250 g/ha: 250 g ai/ha, read-out: damage to plant, Pigweed, Redroot (100=total damage to plant; 0=no damage to plant)
Summary of the method: as §2

SMILES | pest or weed control at 15.625 g/ha [1] [%] | pest or weed control at 62.5 g/ha [1] [%] | pest or weed control at 250 g/ha [1] [%] | pest or weed control at 15.625 g/ha [2] [%] | pest or weed control at 62.5 g/ha [2] [%] | pest or weed control at 250 g/ha [2] [%] | plant injury at 15.625 g/ha (corn (Zea mays) [3]) [%] | plant injury at 62.5 g/ha (corn (Zea mays) [3]) [%] | plant injury at 250 g/ha (corn (Zea mays) [3]) [%] | pest or weed control at 15.625 g/ha [4] [%] | pest or weed control at 62.5 g/ha [4] [%] | pest or weed control at 250 g/ha [4] [%] | pest or weed control at 15.625 g/ha [5] [%] | pest or weed control at 62.5 g/ha [5] [%] | pest or weed control at 250 g/ha [5] [%] | pest or weed control at 15.625 g/ha [6] [%] | pest or weed control at 62.5 g/ha [6] [%] | pest or weed control at 250 g/ha [6] [%] | pest or weed control at 15.625 g/ha [7] [%] | pest or weed control at 62.5 g/ha [7] [%] | further results
CN1C[C@@H](c2ccc(C(F)(F)F)cc2)[C@H](C(=O)Nc2cccc(C(F)(F)F)c2[N+](=O)[O-])C1=O (racemic) [Compound 1594] | 0 | 0 | 0 | 0 | 40 | 30 | 0 | 10 | 10 | 0 | 0 | 0 | 0 | 20 | 20 | 0 | 0 | 0 | 0 | 0 | pest or weed control at 250 g/ha [7]: 0%; pest or weed control at 15.625 g/ha [8]: 0%; pest or weed control at 62.5 g/ha [8]: 20%; pest or weed control at 250 g/ha [8]: 20%; plant injury at 15.625 g/ha (corn (Zea mays) [9]): 0%; plant injury at 62.5 g/ha (corn (Zea mays) [9]): 0%; plant injury at 250 g/ha (corn (Zea mays) [9]): 0%; pest or weed control at 15.625 g/ha [10]: 0%; pest or weed control at 62.5 g/ha [10]: 0%; pest or weed control at 250 g/ha [10]: 0%; pest or weed control at 15.625 g/ha [11]: 0%; pest or weed control at 62.5 g/ha [11]: 20%; pest or weed control at 250 g/ha [11]: 20%; pest or weed control at 15.625 g/ha [12]: 0%; pest or weed control at 62.5 g/ha [12]: 0%; pest or weed control at 250 g/ha [12]: 0%
Cc1nonc1NC(=O)[C@@H]1C(=O)N(C)C[C@H]1c1ccc(C(F)(F)F)cc1 (racemic) [Compound 1597] | 0 | 0 | 0 | 0 | 0 | 0 | 0 | 0 | 0 | 0 | 0 | 0 | 0 | 0 | 0 | 0 | 0 | 0 | 0 | 0 | pest or weed control at 250 g/ha [7]: 0%; pest or weed control at 15.625 g/ha [8]: 0%; pest or weed control at 62.5 g/ha [8]: 0%; pest or weed control at 250 g/ha [8]: 0%; plant injury at 15.625 g/ha (corn (Zea mays) [9]): 0%; plant injury at 62.5 g/ha (corn (Zea mays) [9]): 0%; plant injury at 250 g/ha (corn (Zea mays) [9]): 0%; pest or weed control at 15.625 g/ha [10]: 0%; pest or weed control at 62.5 g/ha [10]: 0%; pest or weed control at 250 g/ha [10]: 0%; pest or weed control at 15.625 g/ha [11]: 0%; pest or weed control at 62.5 g/ha [11]: 0%; pest or weed control at 250 g/ha [11]: 0%; pest or weed control at 15.625 g/ha [12]: 0%; pest or weed control at 62.5 g/ha [12]: 0%; pest or weed control at 250 g/ha [12]: 0%
CN1C[C@@H](c2ccc(C(F)(F)F)cc2)[C@H](C(=O)Nc2ccccc2Cl)C1=O (racemic) [Compound 1598] | 10 | 20 | 40 | 60 | 80 | 90 | 0 | 10 | 70 | 0 | 10 | 60 | 0 | 70 | 80 | 10 | 40 | 50 | 30 | 60 | pest or weed control at 250 g/ha [7]: 70%; pest or weed control at 15.625 g/ha [8]: 80%; pest or weed control at 62.5 g/ha [8]: 80%; pest or weed control at 250 g/ha [8]: 80%; plant injury at 15.625 g/ha (corn (Zea mays) [9]): 0%; plant injury at 62.5 g/ha (corn (Zea mays) [9]): 40%; plant injury at 250 g/ha (corn (Zea mays) [9]): 60%; pest or weed control at 15.625 g/ha [10]: 0%; pest or weed control at 62.5 g/ha [10]: 20%; pest or weed control at 250 g/ha [10]: 50%; pest or weed control at 15.625 g/ha [11]: 30%; pest or weed control at 62.5 g/ha [11]: 80%; pest or weed control at 250 g/ha [11]: 70%; pest or weed control at 15.625 g/ha [12]: 30%; pest or weed control at 62.5 g/ha [12]: 50%; pest or weed control at 250 g/ha [12]: 70%
